Results reported in article PMC12655060, “Modified Hevein-like Peptide from Amaranthus caudatus as a Promising Agent Against Pathogenic Candida Species” (Pharmaceutics, 2025).
In brackets after ≈: the same amount, converted by molar mass. Several values for one entry are separate records, joined by “and”; a condition that tells them apart may be missing. Identical values can stand only once. Like-named read-outs stand apart in the source and are kept apart here. Positions of bridges follow the written chain, without caps; N, C: chain ends. No end group written: not given here.

Tests used:
C. albicans ATCC 18804 [1] = details: for MIC, RPMI-1640 / MIC, ½Sabouraud broth: Table S4; for antifungal activity in RPMI-1640: at a concentration of 50 μM
Procedure: (§1) Briefly, fungal cells at a concentration of 4 × 10^4 cells/mL in the Sabouraud broth were mixed with equal volumes of serial dilutions of the peptide in water (final volume 100 μL and pH 6.0) and incubated at 30 °C for 24 h. Inhibition of fungal growth was assessed relative to the peptide-free control, based on absorbance at 630 nm and microscopic analysis. MIC50 and MIC were defined as minimal concentrations of the peptide, causing 50 and 100% inhibition of fungal growth. […] The effects of heating and reduction in disulfide bonds on the activity of the peptide towards C. albicans ATCC 18804 was also tested. […] Tobacco defensin NaD1, whose structure is also stabilized by disulfide bonds, was used for comparison in these experiments. The effect of reduced L-glutathione (AppliChem, Darmstadt, Germany), a component of RPMI-1640 medium, at a final concentration of 3.25 μM, was also studied.
(§2) Each experiment was conducted twice in triplicate. The microplate wells were pre-treated with 0.1% BSA to minimize adsorption of antifungal agents.

C. albicans 8.2 [2] = experiment: Prevention of adhesion to the plastic surface; type: cell-based, Candida albicans; details: for Cell adhesion, % / Inhibition of adhesion, %: plastic surface
Procedure: The plates were incubated for 1.5 h at 37 °C; after that, plate wells were washed twice with PBS to remove unattached C. albicans cells. Adherent cells were detached by microplate incubation for 45 min with trypsin/EDTA solution. Enzymatic activity was stopped by an addition of 10% FBS. After that the well contents were scraped, diluted 100-fold with PBS, and plated on Sabouraud agar with glucose and chloramphenicol. In this case, adhesion was calculated as ((N × 100)/5 × 10^5) × 100%, and adhesion inhibition was calculated as described above. These experiments were carried out twice in triplicate.

C. albicans ATCC 18804 [3] = experiment: Resistance induction experiments (serial passage); type: cell-based, Candida albicans; details: passaging at 0.25 × MIC for 24 days; mAc-AMP2 8th and 24th, caspofungin 21, LL-37 24th passage
Procedure: For comparison, the echinocandin caspofungin, human cathelicidin LL-37, and tobacco defensin NaD1 were used in these experiments. C. albicans ATCC 18804 or ATCC 10231 at a concentration of 4 × 10^4 cells/mL were added to serial dilutions of antifungal agents. The 96-well microplates were incubated overnight at 30 °C and MIC values were determined as described above. […] Sequential passaging followed by MIC determination continued for 24 days. […] After that whole cultures as well as single colonies were used for MICs determination to confirm the stability of acquired resistance to the peptide.

C. albicans 9.1 [4] = details: 12.5 μM (2 × MIC) and 25 μM (4 × MIC), same conditions; cited from earlier work
C. albicans ATCC 18804 [5] = type: cell-based, Candida albicans
Procedure: (§3) Serial dilutions of the mixture of two combinable substances were added to the equal volumes of fungal cell suspensions in this case. […] Caspofungin or ebselen in 1% DMSO as well as voriconazole in 1% methanol were tested in these experiments.

C. albicans 9.1 [6] = type: cell-based, Candida albicans; details: for [A]/MICA: ratio for mAc-AMP2 in the combination; for [B]/MICB: ratio for the named agent in the combination
Procedure: as §3

C. albicans 8.2 [7] = type: cell-based, Candida albicans; details: for [A]/MICA: ratio for mAc-AMP2 in the combination; for [B]/MICB: ratio for the named agent in the combination
Procedure: as §3

C. albicans 8.2 [8] = details: 12.5 μM (2 × MIC) and 25 μM (4 × MIC), same conditions; cited from earlier work
[9] = tested on: Caco-2 cells in a monolayer; experiment: Cytotoxicity assay (resazurin); type: cell-based, human; details: 12.5 µM, 24 h
Procedure: Then 10 µL of resazurin at a concentration of 0.7 mM was added and the incubation was continued for 4 h. Untreated cells and cells in the presence of 0.1% Triton X-100 were used as negative and positive controls, respectively. The cell viability was estimated by resorufin fluorescence registered at 595 nm as (Fsample/Fcontrol) × 100%. Wells containing no cells were used to subtract background fluorescence. This experiment was carried out twice in duplicate.

C. albicans 8.2 [10] = experiment: Antifungal microdilution assay; type: cell-based; details: Candida albicans, Sabouraud broth
Procedure: as §1, §2

C. albicans ATCC 18804 [11] = tested on: C. albicans ATCC 18804; set-up: method as in PMID 39770352, PMID 39337545; details: 2 h, same conditions; cited from earlier work
C. albicans ATCC 18804 [12] = experiment: Calcofluor White binding assay (cell wall chitin content); type: cell-based, Candida albicans; details: at MIC
Procedure: Polyene antimycotic amphotericin B (AmB) was also used in these experiments. […] Cell cultures were harvested, washed twice with PBS, and stained with 20 μg/mL CFW in PBS for 30 min. After that stained cells were washed three times with PBS and the cell density of each group was adjusted to 10^6 cells/mL using Cell Counter LUNA-II (Logos Biosystems, Anyang-si, Republic of Korea) and trypan blue. Unstained or stained untreated by antifungal agent cells were used as negative and positive controls, respectively. Fluorescence intensities were measured at 20 °C using a Hitachi F-2710 spectrofluorometer (Hitachi High Technologies America Inc., Pleasanton, CA, USA) with excitation and emission wavelengths of 350 nm (10 nm width) and 435 nm, respectively. Results were expressed as % of fluorescence intensity in comparison to positive control. This study was performed twice in triplicate.

[13] = ratio of mAc-AMP2 concentration in the combination with the named agent to its MIC
[14] = ratio of the named agent's concentration in combination with mAc-AMP2 to its MIC
[15] = combination of the named agent with mAc-AMP2

RECKTESNTFPGICITKPPCRKACISEKFTDGHCSKILRRCLCTKPC (disulfide 3-47, 14-34, 20-41, 24-43 (inferred)) [NaD1]
MFC (C. albicans ATCC 18804 [1]; ATCC 18804, 24 h): 25 µM
MIC (C. albicans ATCC 18804 [1]; ATCC 18804, 24 h): 6.25 µM
MFC (C. albicans ATCC 18804 [1]; ATCC 18804, 24 h, pH 6): 12.5 µM
MIC (C. albicans ATCC 18804 [1]; ATCC 18804, 24 h, pH 6): 6.25 µM
Cell adhesion, % (C. albicans 8.2 [2]; 3.13 μM): 5.29%
Cell adhesion, % (C. albicans 8.2 [2]; 6.25 μM): 0.96%
Inhibition of adhesion, % (C. albicans 8.2 [2]; 6.25 μM): 81.32%
Cell adhesion, % (C. albicans 8.2 [2]; 12.5 μM, Sabouraud broth, 1.5 h, 37 °C): 0.15%
Inhibition of adhesion, % (C. albicans 8.2 [2]; 12.5 μM): 97.12% and ~100%
Cell adhesion, % (C. albicans 8.2 [2]; 25 μM, Sabouraud broth, 1.5 h, 37 °C): 0.05%
Inhibition of adhesion, % (C. albicans 8.2 [2]; 25 μM): 99.03%
MIC increase during serial passage (C. albicans ATCC 18804 [3]): no change in the sensitivity
effect on adhesion to the Caco-2 cell monolayer (C. albicans 9.1 [4]): effectively inhibited the adhesion
FICI (C. albicans ATCC 18804 [5]): 0.75
[A]/MICA (C. albicans ATCC 18804 [5]; [13]): 0.5
[B]/MICB (C. albicans ATCC 18804 [5]; [14]): 0.25
FICI (C. albicans 9.1 [6]; 9.1): 1
[A]/MICA (C. albicans 9.1 [6]; strain 9.1): 0.5
[B]/MICB (C. albicans 9.1 [6]; strain 9.1): 0.5
FICI (C. albicans 8.2 [7]; 8.2): 1
[A]/MICA (C. albicans 8.2 [7]; strain 8.2): 0.5
[B]/MICB (C. albicans 8.2 [7]; strain 8.2): 0.5
effect on adhesion to the Caco-2 cell monolayer (C. albicans 8.2 [8]): effectively inhibited the adhesion

melittin
cell death [9]: about 100%

O=c1c2ccccc2[se]n1-c1ccccc1 [Ebselen]
FICI (C. albicans ATCC 18804 [5]; [15]): 1
[A]/MICA (C. albicans ATCC 18804 [5]; [13]): 0.5
[B]/MICB (C. albicans ATCC 18804 [5]; [14]): 0.5
FICI (C. albicans 9.1 [6]; combination of the named agent with mAc-AMP2, strain 9.1): 1
[A]/MICA (C. albicans 9.1 [6]; strain 9.1): 0.5
[B]/MICB (C. albicans 9.1 [6]; strain 9.1): 0.5
FICI (C. albicans 8.2 [7]; combination of the named agent with mAc-AMP2, strain 8.2): 0.75
[A]/MICA (C. albicans 8.2 [7]; strain 8.2): 0.5
[B]/MICB (C. albicans 8.2 [7]; strain 8.2): 0.25

CC[C@H](C)C[C@H](C)CCCCCCCCC(=O)N[C@H]1C[C@@H](O)[C@@H](NCCN)NC(=O)[C@@H]2[C@@H](O)CCN2C(=O)[C@H]([C@H](O)CCN)NC(=O)[C@H]([C@H](O)[C@@H](O)c2ccc(O)cc2)NC(=O)[C@@H]2C[C@@H](O)CN2C(=O)[C@H]([C@@H](C)O)NC1=O [Caspofungin]
MIC (C. albicans 8.2 [10]): 0.04 µg/mL (≈ 0.0366 µM)
inhibition at 5.12 µg/mL (C. albicans 8.2 [2]; Candida albicans, 8.2, read-out: Inhibition of adhesion): ~40%
MIC increase during serial passage (C. albicans ATCC 18804 [3]): eight-fold
effect on PI uptake (C. albicans ATCC 18804 [11]): no effects
FICI (C. albicans ATCC 18804 [5]; [15]): 2
[A]/MICA (C. albicans ATCC 18804 [5]; [13]): 1
[B]/MICB (C. albicans ATCC 18804 [5]; [14]): 1

GIGDPVTCLKSGAICHPVFCPRRYKQIGTCGLPGTKCCKKP (disulfide 8-37, 15-30, 20-38 (inferred)) [HBD2]
MIC, RPMI-1640 (C. albicans ATCC 18804 [1]): > 50 µM
MIC, ½Sabouraud broth (C. albicans ATCC 18804 [1]; ½Sabouraud broth): 6.25 µM
antifungal activity in RPMI-1640 (C. albicans ATCC 18804 [1]): did not exhibit antifungal activity
[A]/MICA (C. albicans ATCC 18804 [5]; [13]): 0.5
[B]/MICB (C. albicans ATCC 18804 [5]; [14]): 0.5

CC[C@H](C)[C@H](NC(=O)[C@H](CCCCN)NC(=O)[C@H](CCC(=O)O)NC(=O)[C@H](CCCCN)NC(=O)[C@H](CO)NC(=O)[C@H](CCCCN)NC(=O)[C@H](CCCNC(=N)N)NC(=O)[C@H](Cc1ccccc1)NC(=O)[C@H](Cc1ccccc1)NC(=O)[C@H](CC(=O)O)NC(=O)CNC(=O)[C@H](CC(C)C)NC(=O)[C@@H](N)CC(C)C)C(=O)NCC(=O)N[C@@H](CCCCN)C(=O)N[C@@H](CCC(=O)O)C(=O)N[C@@H](Cc1ccccc1)C(=O)N[C@@H](CCCCN)C(=O)N[C@@H](CCCNC(=N)N)C(=O)N[C@H](C(=O)N[C@H](C(=O)N[C@@H](CCC(N)=O)C(=O)N[C@@H](CCCNC(=N)N)C(=O)N[C@H](C(=O)N[C@@H](CCCCN)C(=O)N[C@@H](CC(=O)O)C(=O)N[C@@H](Cc1ccccc1)C(=O)N[C@@H](CC(C)C)C(=O)N[C@@H](CCCNC(=N)N)C(=O)N[C@@H](CC(N)=O)C(=O)N[C@@H](CC(C)C)C(=O)N[C@H](C(=O)N1CCC[C@H]1C(=O)N[C@@H](CCCNC(=N)N)C(=O)N[C@H](C(=O)N[C@@H](CCC(=O)O)C(=O)N[C@@H](CO)C(=O)O)[C@@H](C)O)C(C)C)[C@@H](C)CC)C(C)C)[C@@H](C)CC [LL-37]
MIC, RPMI-1640 (C. albicans ATCC 18804 [1]): > 50 µM
MIC, ½Sabouraud broth (C. albicans ATCC 18804 [1]; ½Sabouraud broth): 12.5 µM (≈ 56.2 µg/mL)
antifungal activity in RPMI-1640 (C. albicans ATCC 18804 [1]): did not exhibit antifungal activity
MIC (C. albicans ATCC 18804 [1]; microdilution, ½Sabouraud broth, pH 6.0, no salts, no FBS, 30 °C, 24 h, 100% growth inhibition, twice in triplicate): 12.5 µM
MIC increase during serial passage (C. albicans ATCC 18804 [3]): two-fold
[A]/MICA (C. albicans ATCC 18804 [5]; [13]): 0.5
[B]/MICB (C. albicans ATCC 18804 [5]; [14]): 0.5

C[C@@H](c1ncncc1F)[C@](O)(Cn1cncn1)c1ccc(F)cc1F [Voriconazole]
FICI (C. albicans ATCC 18804 [5]; combination with mAc-AMP2, for voriconazole MIC50 values were used): 2
[A]/MICA (C. albicans ATCC 18804 [5]; ratio for mAc-AMP2 in the combination, for voriconazole MIC50 values were used): 1
[B]/MICB (C. albicans ATCC 18804 [5]; ratio for voriconazole in the combination, MIC50 values were used): 1

C[C@@H]1[C@H](O)[C@@H](C)/C=C/C=C/C=C/C=C/C=C/C=C/C=C/[C@H](O[C@@H]2O[C@H](C)[C@@H](O)[C@H](N)[C@@H]2O)C[C@@H]2O[C@](O)(C[C@@H](O)C[C@@H](O)[C@H](O)CC[C@@H](O)C[C@@H](O)CC(=O)O[C@H]1C)C[C@H](O)[C@H]2C(=O)O [amphotericin B]
fluorescence intensity of Calcofluor White-stained cells (C. albicans ATCC 18804 [12]): reduced
effect on PI uptake (C. albicans ATCC 18804 [11]): no effects
